In test [1] the target is human vasopressin V1a receptor (Homo sapiens, UniProt P37288). Description: Vasopressin V1a receptor binding assay. As to conditions: selectivity quotient, human V1a vs human V1b.
Test [2] addresses T1, human vasopressin V1b receptor (Homo sapiens, UniProt P47901).
T1 sequence (P47901 1-424): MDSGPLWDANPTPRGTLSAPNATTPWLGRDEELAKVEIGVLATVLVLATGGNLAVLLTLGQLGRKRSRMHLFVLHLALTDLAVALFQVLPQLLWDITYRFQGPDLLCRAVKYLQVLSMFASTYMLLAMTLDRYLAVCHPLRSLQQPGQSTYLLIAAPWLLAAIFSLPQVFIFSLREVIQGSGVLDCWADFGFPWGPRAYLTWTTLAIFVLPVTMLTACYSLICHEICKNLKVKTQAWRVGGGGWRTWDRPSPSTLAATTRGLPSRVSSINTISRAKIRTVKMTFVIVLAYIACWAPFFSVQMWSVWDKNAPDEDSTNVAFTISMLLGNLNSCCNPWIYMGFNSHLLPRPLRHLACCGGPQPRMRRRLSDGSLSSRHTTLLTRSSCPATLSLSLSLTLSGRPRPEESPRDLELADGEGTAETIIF
Kind of test: biochemical.

The structures appear in SMILES notation.

Chain of human vasopressin V1a receptor (P37288 whole entry): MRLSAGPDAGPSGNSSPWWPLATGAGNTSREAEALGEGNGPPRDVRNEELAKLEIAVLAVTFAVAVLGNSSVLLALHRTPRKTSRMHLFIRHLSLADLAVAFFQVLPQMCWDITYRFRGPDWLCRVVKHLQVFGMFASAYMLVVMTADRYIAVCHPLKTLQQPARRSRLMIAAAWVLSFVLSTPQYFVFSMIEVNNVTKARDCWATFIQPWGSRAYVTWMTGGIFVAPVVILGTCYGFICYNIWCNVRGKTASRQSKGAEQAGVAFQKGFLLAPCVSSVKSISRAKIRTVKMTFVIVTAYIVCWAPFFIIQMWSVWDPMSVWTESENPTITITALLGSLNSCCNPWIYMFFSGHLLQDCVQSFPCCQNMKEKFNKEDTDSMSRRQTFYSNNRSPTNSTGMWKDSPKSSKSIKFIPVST

Regarding `CCOc1ccc(OC)cc1[C@]1(NC(=O)N2CCN(C3CCN(C4COC4)CC3)CC2)C(=O)N(S(=O)(=O)c2ccc(F)cc2OC)c2ccc(C#N)cc21` [Example 35, N-[(3S)-5-cyano-3-(2-ethoxy-5-methoxy-phenyl)-1-(4-fluoro-2-methoxy-phenyl)sulfonyl-2-oxo-indolin-3-yl]-4-[1-(oxetan-3-yl)-4-piperidyl]piperazine-1-carboxamide], in test [1], the “Ki(h-V1a)/Ki(h-V1b)” value is given as “+++ (>75)”. In test [2], the Ki (commonly the dissociation constant of the complex between target and ligand, obtained from inhibition or displacement) was 1 to 10 nM.

Regarding `COc1cc(C)ccc1S(=O)(=O)N1C(=O)[C@@](NC(=O)N2CCN(C3CCN(C4COC4)CC3)CC2)(c2cccnc2OC)c2cc(C#N)ccc21` [Example 46, N-[(3S)-5-cyano-1-(2-methoxy-4-methyl-phenyl)sulfonyl-3-(2-methoxy-3-pyridyl)-2-oxo-indolin-3-yl]-4-[1-(oxetan-3-yl)-4-piperidyl]piperazine-1-carboxamide], the “Ki(h-V1a)/Ki(h-V1b)” value in test [1] was “+++ (>75)”. Also, the Ki in test [2] was in the range of 10 to 100 nM.

Turning to `CCOc1ccc(OC)cc1[C@]1(NC(=O)N2CCN(C3CCN(C4COC4)CC3)CC2)C(=O)N(S(=O)(=O)c2ccc(OC)cc2OC)c2ccc(C#N)cc21` [Example 33, N-[(3S)-5-cyano-1-(2,4-dimethoxyphenyl)sulfonyl-3-(2-ethoxy-5-methoxy-phenyl)-2-oxo-indolin-3-yl]-4-[1-(oxetan-3-yl)-4-piperidyl]piperazine-1-carboxamide], the “Ki(h-V1a)/Ki(h-V1b)” value in test [1] is recorded as “+++ (>75)”. The compound also yielded a Ki in test [2] of 1 to 10 nM.

Turning to `COc1ccc(S(=O)(=O)N2C(=O)[C@@](NC(=O)N3CCN(C4CCN(C5COC5)CC4)CC3)(c3cccnc3OC)c3cc(C#N)ccc32)nc1` [Example 29, N-[(3S)-5-cyano-3-(2-methoxy-3-pyridyl)-1-[(5-methoxy-2-pyridyl)sulfonyl]-2-oxo-indolin-3-yl]-4-[1-(oxetan-3-yl)-4-piperidyl]piperazine-1-carboxamide], the “Ki(h-V1a)/Ki(h-V1b)” value in test [1] is “+ (10-<25)”. The compound further returned a Ki in test [2] of 1 to 10 nM.

Take `CCOc1ncccc1[C@]1(NC(=O)N2CCN(C3CCN(C4COC4)CC3)CC2)C(=O)N(S(=O)(=O)c2ccc(F)cc2)c2ccc(C#N)cc21` [Example 28, N-[(3S)-5-cyano-3-(2-ethoxy-3-pyridyl)-1-(4-fluorophenyl)sulfonyl-2-oxo-indolin-3-yl]-4-[1-(oxetan-3-yl)-4-piperidyl]piperazine-1-carboxamide]: the “Ki(h-V1a)/Ki(h-V1b)” value in test [1] is recorded as “+++ (>75)”. In addition, the Ki in test [2] lay in the range of 10 to 100 nM.

For the compound `CCOc1ccc(OC)cc1[C@]1(NC(=O)N2CCN(C3CCN(C4COC4)CC3)CC2)C(=O)N(S(=O)(=O)c2ccc(OC)cn2)c2ccc(C#N)cc21` [Example 32, N-[(3S)-5-cyano-3-(2-ethoxy-5-methoxy-phenyl)-1-[(5-methoxy-2-pyridyl)sulfonyl]-2-oxo-indolin-3-yl]-4-[1-(oxetan-3-yl)-4-piperidyl]piperazine-1-carboxamide], the “Ki(h-V1a)/Ki(h-V1b)” value in test [1] is on record as “+++ (>75)”. In test [2], this compound had a Ki of 10 to 100 nM.

As to `COc1ccc(S(=O)(=O)N2C(=O)[C@@](NC(=O)N3CCN(C4CCN(C5COC5)CC4)CC3)(c3cc(OC)ccc3OC)c3cc(C#N)ccc32)c(OC)c1` [Example 54, (S)—N-(5-cyano-3-(2,5-dimethoxyphenyl)-1-((2,4-dimethoxyphenyl)sulfonyl)-2-oxoindolin-3-yl)-4-(1-(oxetan-3-yl)piperidin-4-yl)piperazine-1-carboxamide], the “Ki(h-V1a)/Ki(h-V1b)” value in test [1] is “++ (25-75)”. Also, in test [2], the Ki is under 1 nM.

In the case of `COc1ncccc1[C@]1(NC(=O)N2CCC(C3CCN(C4COC4)CC3)CC2)C(=O)N(S(=O)(=O)c2ccc(F)cc2)c2ccc(C#N)cc21` [Example 40, N-[(3S)-5-cyano-1-(4-fluorophenyl)sulfonyl-3-(2-methoxy-3-pyridyl)-2-oxo-indolin-3-yl]-4-[1-(oxetan-3-yl)-4-piperidyl]piperidine-1-carboxamide], the “Ki(h-V1a)/Ki(h-V1b)” value in test [1] is “+ (10-<25)”. The Ki in test [2] fell in the range of 1 to 10 nM.

Turning to `COc1ccc(S(=O)(=O)N2C(=O)[C@@](NC(=O)N3CCC(C4CCN(C5COC5)CC4)CC3)(c3cccnc3OC)c3cc(C#N)ccc32)cc1` [Example 36, N-[(3S)-5-cyano-1-(4-methoxyphenyl)sulfonyl-3-(2-methoxy-3-pyridyl)-2-oxo-indolin-3-yl]-4-[1-(oxetan-3-yl)-4-piperidyl]piperidine-1-carboxamide], the “Ki(h-V1a)/Ki(h-V1b)” value in test [1] is “+++ (>75)”. The compound further yielded a Ki in test [2] of 1 to 10 nM.

For the compound `COc1ccc(S(=O)(=O)N2C(=O)[C@@](NC(=O)N3CCN(C4CCN(C5COC5)CC4)CC3)(c3cccnc3OC(C)C)c3cc(C#N)ccc32)c(OC)c1` [Example 44, N-[(3S)-5-cyano-1-(2,4-dimethoxyphenyl)sulfonyl-3-(2-isopropoxy-3-pyridyl)-2-oxo-indolin-3-yl]-4-[1-(oxetan-3-yl)-4-piperidyl]piperazine-1-carboxamide], the “Ki(h-V1a)/Ki(h-V1b)” value in test [1] was “+++ (>75)”. The compound further showed a Ki in test [2] of 1 to 10 nM.

For the compound `CCOc1ncccc1[C@]1(NC(=O)N2CCN(C3CCN(C4COC4)CC3)CC2)C(=O)N(S(=O)(=O)c2ccc(OC)cn2)c2ccc(C#N)cc21` [Example 25, N-[(3S)-5-cyano-3-(2-ethoxy-3-pyridyl)-1-[(5-methoxy-2-pyridyl)sulfonyl]-2-oxo-indolin-3-yl]-4-[1-(oxetan-3-yl)-4-piperidyl]piperazine-1-carboxamide], in test [1], the “Ki(h-V1a)/Ki(h-V1b)” value is recorded as “+++ (>75)”. In test [2], this compound returned a Ki of 1 to 10 nM.

For the compound `COc1cc(F)ccc1S(=O)(=O)N1C(=O)[C@@](NC(=O)N2CCN(C3CCN(C4COC4)CC3)CC2)(c2cccnc2OC)c2cc(C#N)ccc21` [Example 30, N-[(3S)-5-cyano-1-(4-fluoro-2-methoxy-phenyl)sulfonyl-3-(2-methoxy-3-pyridyl)-2-oxo-indolin-3-yl]-4-[1-(oxetan-3-yl)-4-piperidyl]piperazine-1-carboxamide], in test [1], the “Ki(h-V1a)/Ki(h-V1b)” value was “+++ (>75)”. Further, the Ki in test [2] is 1 to 10 nM.

On to `COc1ccc(S(=O)(=O)N2C(=O)[C@@](NC(=O)N3CCN(C4CCN(C5COC5)CC4)CC3)(c3cccnc3OC)c3cc(C#N)ccc32)cc1` [Example 34, N-[(3S)-5-cyano-1-(4-methoxyphenyl)sulfonyl-3-(2-methoxy-3-pyridyl)-2-oxo-indolin-3-yl]-4-[1-(oxetan-3-yl)-4-piperidyl]piperazine-1-carboxamide], for which the “Ki(h-V1a)/Ki(h-V1b)” value in test [1] is “++ (25-75)”. In addition, the Ki in test [2] was in the range of 10 to 100 nM.

In the case of `CCOc1ncccc1[C@]1(NC(=O)N2CC3CC2CN3C2CCN(C3COC3)CC2)C(=O)N(S(=O)(=O)c2ccc(OC)cc2OC)c2ccc(C#N)cc21` (stereo partly drawn) [Example 38, N-[(3S)-5-cyano-1-(2,4-dimethoxyphenyl)sulfonyl-3-(2-ethoxy-3-pyridyl)-2-oxo-indolin-3-yl]-5-[1-(oxetan-3-yl)-4-piperidyl]-2,5-diazabicyclo[2.2.1]heptane-2-carboxamide], the “Ki(h-V1a)/Ki(h-V1b)” value in test [1] is “+++ (>75)”. The compound also showed a Ki in test [2] of 10 to 100 nM.

As to `COc1ncccc1[C@]1(NC(=O)N2CCN(C3CCN(C4COC4)CC3)CC2)C(=O)N(S(=O)(=O)c2ccc(C#N)cc2F)c2ccc(C#N)cc21` [Example 47, N-[(3S)-5-cyano-1-(4-cyano-2-fluoro-phenyl)sulfonyl-3-(2-methoxy-3-pyridyl)-2-oxo-indolin-3-yl]-4-[1-(oxetan-3-yl)-4-piperidyl]piperazine-1-carboxamide], the “Ki(h-V1a)/Ki(h-V1b)” value in test [1] was “++ (25-75)”. The compound also registered an inhibitory constant (Ki) in test [2] of 10 to 100 nM.

As to `COc1ccc(S(=O)(=O)N2C(=O)[C@@](NC(=O)N3CCC(N4CCN(C5COC5)CC4)CC3)(c3cccnc3OC)c3cc(C#N)ccc32)c(OC)c1` [Example 31, N-[(3S)-5-cyano-1-(2,4-dimethoxyphenyl)sulfonyl-3-(2-methoxy-3-pyridyl)-2-oxo-indolin-3-yl]-4-[4-(oxetan-3-yl)piperazin-1-yl]piperidine-1-carboxamide], in test [1], the “Ki(h-V1a)/Ki(h-V1b)” value is on record as “+++ (>75)”. The compound further registered a Ki in test [2] of 10 to 100 nM.

`CCOc1ncccc1[C@]1(NC(=O)N2CCN(C3CCN(CC4COC4)CC3)CC2)C(=O)N(S(=O)(=O)c2ccc(OC)cc2OC)c2ccc(C#N)cc21` [Example 19, (S)—N-(5-cyano-1-((2,4-dimethoxyphenyl)sulfonyl)-3-(2-ethoxypyridin-3-yl)-2-oxoindolin-3-yl)-4-(1-(oxetan-3-ylmethyl)piperidin-4-yl)piperazine-1-carboxamide]: the “Ki(h-V1a)/Ki(h-V1b)” value in test [1] is “+++ (>75)”. Further, the Ki in test [2] was 10 to 100 nM.

`COc1ncccc1[C@]1(NC(=O)N2CCC(C3CCN(C4COC4)CC3)CC2)C(=O)N(S(=O)(=O)c2ccccc2)c2ccc(C#N)cc21` [Example 50, (S)—N-(5-cyano-3-(2-methoxypyridin-3-yl)-2-oxo-1-(phenylsulfonyl)indolin-3-yl)-1′-(oxetan-3-yl)-[4,4′-bipiperidine]-1-carboxamide]: the “Ki(h-V1a)/Ki(h-V1b)” value in test [1] is recorded as “++ (25-75)”. Besides, the Ki in test [2] is 10 to 100 nM.

In the case of `CCOc1ncccc1[C@]1(NC(=O)N2CCN(C3CCN(C4COC4)CC3)CC2)C(=O)N(S(=O)(=O)c2ccc(OC)cc2OC)c2cc(F)c(C#N)cc21` [Example 7A, (S)—N-(5-cyano-1-((2,4-dimethoxyphenyl)sulfonyl)-3-(2-ethoxypyridin-3-yl)-6-fluoro-2-oxoindolin-3-yl)-4-(1-(oxetan-3-yl)piperidin-4-yl)piperazine-1-carboxamide], the “Ki(h-V1a)/Ki(h-V1b)” value in test [1] is “+++ (>75)”. The compound further showed a Ki in test [2] of under 1 nM.

(Values after US9657002B2, “Oxindole derivatives carrying an oxetane substituent and use thereof for treating vassopressin-related diseases” (AbbVie Deutschland GmbH & Co. KG, priority 2013, dated 2017).)
